From patent US20200368315A1, “ANTIMICROBIAL PEPTIDES AND ADMIXTURES THEREOF SHOWING ANTIMICROBIAL ACTIVITY AGAINST GRAM-NEGATIVE PATHOGENS” (priority 2017, published 2020)
Where two headings read alike, the source gives them in different places. No end group written: not given here.

Key:
[1] = test system: P. aeruginosa LMG 6395; type: cell-based, Pseudomonas aeruginosa; details: for MICb: MIC of GNP alone; for MICbc: MIC of GNP when used with the MICac concentration of nisin; for MICac: MIC of nisin in combination with the GNP at the MICbc concentration
Source text: (§1) The test of synergistic effect was processed by conducting standard chequerboard broth microdilution assays. Nisin (Drug X) was loaded two fold serially diluted from row 1 to 10 in X-axis while GNPs (Drug Y) were loaded in eight two fold serially diluted concentrations from line A to H in Y-axis (FIG. 1). The original concentrations of peptides were MICs of each. Row 11 are used as growth control with no peptide was included, while row 12 with MHB medium-only wells was included as a sterility control as referred before. 50 uL fresh bacterial suspension was added to well 1-11 and final volume of each well on the plate is 100 uL.
(§2) To determine whether the combination therapy is additive, synergistic or antagonistic, fractional inhibitory concentration (FIC) indices were calculated. FICI=FICa+FICb=MICac/MICa+MICbc/MICb. The MICa/MICb is the MIC of compound A/B alone. MICac is the MIC of compound A in combination with compound B and MICbc is the MIC of compound B when it was combination with compound A. […]. FICa is FIC of compound A while FICb is FIC of compound B. The FICI is interpreted as follows: synergistic, FICI≤0.5; additive, 0.5<FICI<1; indifferent, 1<FICI<2; antagonistic, FICI>2.

[2] = test system: E. coli LMG15862; type: cell-based, Escherichia coli; details: for MICb: MIC of GNP alone; for MICbc: MIC of GNP when used with the MICac concentration of nisin; for MICac: MIC of nisin in combination with the GNP at the MICbc concentration
Source text: as §1, §2

[3] = test system: K. pneumoniae LMG20218; type: cell-based, Klebsiella pneumoniae; details: for MICb: MIC of GNP alone; for MICbc: MIC of GNP when used with the MICac concentration of nisin; for MICac: MIC of nisin in combination with the GNP at the MICbc concentration
Source text: as §1, §2

[4] = test system: A. baumannii LMG01041; type: cell-based, Acinetobacter baumannii; details: for MICb: MIC of GNP alone; for MICbc: MIC of GNP when used with the MICac concentration of nisin; for MICac: MIC of nisin in combination with the GNP at the MICbc concentration
Source text: as §1, §2

[5] = test system: E. aerogenes LMG 02094; details: for MICb: MIC of GNP alone
Procedure: (§3) The test of synergistic effect was processed by conducting standard chequerboard broth microdilution assays. […] Row 11 are used as growth control with no peptide was included, while row 12 with MHB medium-only wells was included as a sterility control as referred before. 50 uL fresh bacterial suspension was added to well 1-11 and final volume of each well on the plate is 100 uL.
(§4) The test of synergistic effect was processed as method 1.4.
as §2

[6] = test system: K. pneumoniae LMG20218; details: for MICb: MIC of GNP alone; for MICbc: MIC of GNP in combination with vancomycin at the MICac concentration; for MICac: MIC of vancomycin in combination with the GNP at the MICbc concentration
Procedure: as §3, §4, §2

[7] = test system: E. coli LMG15862; details: for MICb: MIC of GNP alone; for MICbc: MIC of GNP in combination with vancomycin at the MICac concentration; for MICac: MIC of vancomycin in combination with the GNP at the MICbc concentration
Procedure: as §3, §4, §2

[8] = test system: P. aeruginosa LMG 6395; details: for MICb: MIC of GNP alone; for MICbc: MIC of GNP in combination with vancomycin at the MICac concentration; for MICac: MIC of vancomycin in combination with the GNP at the MICbc concentration
Procedure: as §3, §4, §2

[9] = test system: A. baumannii LMG01041; details: for MICb: MIC of GNP alone; for MICbc: MIC of GNP in combination with vancomycin at the MICac concentration; for MICac: MIC of vancomycin in combination with the GNP at the MICbc concentration
Procedure: as §3, §4, §2

[10] = test system: E. aerogenes LMG 02094; type: cell-based, Enterobacter aerogenes; details: for MICb: MIC of GNP alone
Source text: as §1, §2

[11] = test system: E. coli LMG15862; assay: microbe, parasite or virus in culture; type: cell-based, Escherichia coli; details: L-form GNP; E. coli LMG15862; Table 6
Procedure: (§5) Escherichia coli, Klebsiella pneumoniae, Pseudomonas aeruginosa, Acinetobacter baumannii, Enterobacter aerogenes were grown in Luria-Bertani (LB) broth shaken (200 rpm) or on LB agar at 37° C. […] MICs tests were performed in duplicate by a liquid growth inhibition microdilution assays in sterilized polypropylene microtiter plates according to Wiegand and […] [27]. […] The suspension was diluted in a ratio of 1:100 using Mueller Hinton Broth (MHB) and the final inoculum is 5*10^5 CFU/mL. […] The antimicrobials were diluted serially by 1/2 one by one and 50 uL diluted bacterial suspension were added to each well to make the final volume to be 100 uL. Growth control was accomplished by remove 10 uL from well 11 and dilute 1000 times to plate 1/10 suspension on the solid medium. […] The number of colonies on the control agar plate should be around 50 to ensure the concentration of the inoculum and the effectiveness of the experiment. The lowest concentration of the antimicrobials that inhibits visible growth of the indicator is identified as MIC.

[12] = test system: K. pneumoniae LMG20218; assay: microbe, parasite or virus in culture; type: cell-based, Klebsiella pneumoniae; details: LMG20218
Procedure: as §5

[13] = test system: P. aeruginosa LMG 6395; assay: microbe, parasite or virus in culture; type: cell-based, Pseudomonas aeruginosa; details: LMG 6395
Procedure: as §5

[14] = test system: E. aerogenes LMG 02094; assay: microbe, parasite or virus in culture; type: cell-based, Enterobacter aerogenes; details: LMG 02094
Procedure: as §5

[15] = test system: A. baumannii LMG01041; assay: microbe, parasite or virus in culture; type: cell-based, Acinetobacter baumannii; details: LMG01041
Procedure: as §5

Row | Substance | MICb [1] | MICbc [1] | MICac [1] | MICb [2] | MICbc [2] | MICac [2] | MICb [3] | MICbc [3] | MICac [3] | MICb [4] | MICb [5] | MICb [6] | MICb [7] | MICbc [7] | MICac [7] | MICb [8] | MICbc [8] | MICac [8] | MICb [9] | MICb [10] | also measured
1 | KIVQRIKKWLR-NH2 [GNP8-2] | 16 µM | 4 µM | 4.5 µM | 16 µM | 2 µM | 1.5 µM | 32 µM | 2 µM | 0.75 µM | 128 µM | 256 µM | 32 µM | 16 µM | 2 µM | 4 µM | 16 µM | 2 µM | 16 µM | 128 µM | 256 µM | MICbc [4]: 16 µM; MICac [4]: 0.375 µM; MICbc ([5]; MIC of GNP in combination with vancomycin at the MICac concentration): 16 µM; MICac ([5]; MIC of vancomycin in combination with the GNP at the MICbc concentration): 12 µM; MICbc [6]: 8 µM; MICac [6]: 16 µM; MICbc [9]: 4 µM; MICac [9]: 4 µM; MICbc ([10]; MIC of GNP when used with the MICac concentration of nisin): 1 µM; MICac ([10]; MIC of nisin in combination with the GNP at the MICbc concentration): 4 µM
2 | KRIVQRIKKWLR-NH2 [GNP-9] |  |  |  |  |  |  |  |  |  |  |  |  |  |  |  |  |  |  |  |  | MICb (GNP concentration when used alone) [11]: 4 µM; MICb (MIC of GNP alone) [12]: 64 µM; MICb (MIC of GNP alone) [13]: 16 µM; MICb (MIC of GNP alone) [14]: >32 µM; MICb (MIC of GNP alone) [15]: 16 µM
3 | RIKRRIKKWLR-NH2 [GNP8-5] | 32 µM | 8 µM | 9 µM | 24 µM | 3 µM | 3 µM | >256 µM |  |  | >256 µM | >256 µM | >256 µM | 24 µM | 3 µM | 4 µM | 32 µM | 8 µM | 16 µM | >256 µM | >256 µM | 
4 | RIRKRIKKWLR-NH2 [GNP8-4] | 16 µM | 4 µM | 2.25 µM | 16 µM | 2 µM | 3 µM | >256 µM |  |  | >256 µM | >256 µM | >256 µM | 16 µM | 2 µM | 4 µM | 16 µM | 8 µM | 4 µM | >256 µM | >256 µM | 
5 | RIVQRIKKWL-NH2 [GNP8-1] | 16 µM | 4 µM | 4.5 µM | 32 µM | 4 µM | 1.5 µM | 64 µM | 1 µM | 3 µM | 128 µM | >256 µM | 64 µM | 32 µM | 4 µM | 8 µM | 16 µM | 2 µM | 16 µM | 128 µM | >256 µM | MICbc [4]: 16 µM; MICac [4]: 0.375 µM; MICbc [6]: 8 µM; MICac [6]: 16 µM; MICbc [9]: 16 µM; MICac [9]: 1 µM
6 | RIVQRIKKWR-NH2 [GNP8-6] | >256 µM |  |  | 256 µM | 64 µM | 6 µM | >256 µM |  |  | >256 µM | >256 µM | >256 µM | 256 µM | 16 µM | 8 µM | >256 µM |  |  | >256 µM | >256 µM | 
